Measurements as given in US20100003246A1, “Novel heterocyclic compounds and uses therof” (priority 2008, published 2010).
pEC50: −log10 of the molar value.

What was measured:
[1] = system: SU86.86 cells; assay: Cell Titer-Glo cell viability assay, SU86.86; format: cell-based; conditions: Homo sapiens, SU.86.86, 120 h; Pancreatic cell line SU86.86; 5 days compound incubation; 1000 cells/well
Procedure: (§1) The Cell Titer-Glo® assay (Promega) was used to measure cell viability. Cells were plated into 96-well black walled tissue culture plates in complete growth media. The plates were then incubated under standard growth conditions of 37° C. and 5% CO2 until the cells had attached to the plates (3-6 hours), then compounds were added to the cells. Compounds were serially diluted in DMSO using 3-fold dilutions and then diluted in complete media before being added to the cells (final DMSO concentration on cells was 0.1-0.2%).
(§2) After compound incubation, the cell plates were equilibrated to room temperature, culture media was removed, and 200 uL of Cell Titer-Glo® reagent mix was added to each well (1:1 mixture of Cell Titer-Glo® reagent and complete growth media, equilibrated to room temperature). The plates were shaken for 5-10 minutes, then sealed and luminescence was measured (using Trilux plate reader, Perkin Elmer).
Analysis of data was done by subtracting the background luminescence value from each data point, then determining the percent inhibition of total growth (as determined by the values for DMSO-treated wells).
To determine the EC50 for each compound, the data were fit using the Levenburg Marquardt algorithm, represented in the XLfit software as y=A+((B−A)/(1+((C/x)̂D))), the four parameter dose response model 205, where A is the minimum Y value, B is the maximum Y value, C is the Log IC50 and D is the slope.

[2] = system: K1 cells; assay: Cell Titer-Glo cell viability assay, K1; format: cell-based; conditions: 96 h; Papillary thyroid cell line K1; 4 days compound incubation; 1500 cells/well
Procedure: as §1, §2
Analysis of data was done by subtracting the background luminescence value from each data point, then determining the percent inhibition of total growth (as determined by the values for DMSO-treated wells). […]

[3] = target: T1, b-Raf(V600E) (Homo sapiens, UniProt P15056, V600E); assay: Raf/Mek Amplified Luminescence Proximity Homogeneous Assay (Alpha Screen), b-Raf(V600E); format: biochemical; conditions: mutant b-Raf(V600E), read-out: mut-b-RAF (IC50 in uM)
T1 construct: made in house
Procedure, shortened: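 Active b-Raf(V600E) (~4 pM) pre-incubated 60 min at room temperature with compound and kinase-dead biotinylated Mek (~10 nM) in Tris pH 7.5, MgCl2, BSA, DTT; ATP-started reaction ran 3 h, EDTA-stopped. Phospho-MEK detected by anti-p-MEK AlphaScreen luminescence; IC50 by non-linear regression.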

T1 sequence (P15056 whole entry V600E): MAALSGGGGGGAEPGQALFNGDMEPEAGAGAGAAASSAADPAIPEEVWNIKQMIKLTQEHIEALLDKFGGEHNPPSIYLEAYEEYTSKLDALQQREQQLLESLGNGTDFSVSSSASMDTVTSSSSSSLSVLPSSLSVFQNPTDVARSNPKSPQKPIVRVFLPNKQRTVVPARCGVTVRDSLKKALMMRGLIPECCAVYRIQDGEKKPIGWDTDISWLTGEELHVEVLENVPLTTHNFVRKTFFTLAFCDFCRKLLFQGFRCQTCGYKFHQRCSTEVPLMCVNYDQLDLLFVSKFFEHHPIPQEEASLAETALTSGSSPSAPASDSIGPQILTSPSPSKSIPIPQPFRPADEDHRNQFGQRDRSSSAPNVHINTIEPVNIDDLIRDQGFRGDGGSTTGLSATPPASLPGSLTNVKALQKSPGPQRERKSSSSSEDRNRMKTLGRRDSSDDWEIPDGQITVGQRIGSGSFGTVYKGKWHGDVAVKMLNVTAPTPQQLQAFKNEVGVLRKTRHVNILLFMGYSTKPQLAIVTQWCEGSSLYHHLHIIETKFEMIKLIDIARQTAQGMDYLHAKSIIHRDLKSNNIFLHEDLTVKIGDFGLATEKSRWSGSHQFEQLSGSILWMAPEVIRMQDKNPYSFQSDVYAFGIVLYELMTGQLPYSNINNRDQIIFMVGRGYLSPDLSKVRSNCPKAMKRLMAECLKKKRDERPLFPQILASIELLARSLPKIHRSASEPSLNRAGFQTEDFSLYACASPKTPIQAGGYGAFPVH

| IC50 [3] [µM] | Compound | pEC50 [1] | pEC50 [2] |
| --- | --- | --- | --- |
| – | COCC(=O)N[C@@H](C)CNc1nccc(-c2[nH]c(-c3ccc(F)cc3)nc2-c2cnc(N)c(OC)n2)n1 [Compound 5, (S)-N-(1-(4-(4-(5-amino-6-methoxypyrazin-2-yl)-2-(4-fluorophenyl)-1H-imidazol-5-yl)pyrimidin-2-ylamino)propan-2-yl)-2-methoxyacetamide] | 6.45 | 6.05 |
| 0.0003 | COCC(=O)N[C@@H](C)CNc1nccc(-c2[nH]c(-c3ccc(C(F)(F)F)cc3)nc2-c2cnc(N)c(OC)c2)n1 [Compound 198, (S)-N-(1-(4-(4-(6-amino-5-methoxypyridin-3-yl)-2-(4-(trifluoromethyl)phenyl)-1H-imidazol-5-yl)pyrimidin-2-ylamino)propan-2-yl)-2-methoxyacetamide] | – | 6.10 |
